Measured values: patent publication US8278075B2, “L-cysteine-producing bacterium and a method for producing L-cysteine” (Ajinomoto Co., Inc., priority 2008, dated 2012)

Legend:
[1] = system: wild-type BW25113 strain; assay: Cross streak method, growth inhibition (antibacterial) width; assay type: cell-based, Escherichia coli; conditions: L agar, overnight at 30° C.
Procedure: (§1) Influence of a tolC gene deficiency on N-acetylserine (NAS) and O-acetylserine (OAS) sensitivity was investigated in a strain which is deficient in a part of or the entire tolC gene by the cross streak method. In order to compare growth inhibition by NAS (2 M), OAS (2 M), L-cysteine (2 M) and L-serine (1 M), the tolC-deficient JW5503 strain, and the wild-type BW25113 strain used as a control, were cultured overnight in the L liquid medium, and each culture medium was streaked on the L agar medium with a platinum loop. A strip-shaped filter paper onto which each of the aforementioned reagents was dropped, was placed on each of the strains in a direction perpendicular to the streaking direction, and the strains were cultured overnight at 30° C. After the culture, lengths of the filter paper on which growth of the bacteria was inhibited (antibacterial widths) were measured, and the antibacterial activities of the regents on both the strains were compared.

[2] = system: tolC-deficient JW5503 strain (BW25113ΔtolC); assay: as above; assay type: cell-based, Escherichia coli; conditions: L agar, overnight at 30° C.
Procedure: as §1

[3] = system: wild-type strains; assay: Growth on LB agar media containing cysteine (Keio collection screening); assay type: cell-based, E. coli BW25113; conditions: overnight at 37° C.
Procedure: The 3,985 clones of the Keio collection were cultured at 37° C. for 15 hours in 0.5 ml of LB liquid medium. This culture medium was stamped on LB agar media containing cysteine at different concentrations (0, 15, 20, 25 mM), and culture was performed overnight at 37° C. Clones that were sensitive to cysteine at a concentration not higher than the growth inhibition concentration of cysteine for wild-type strains (20 mM) were visually selected. […] A strain which is deficient in a part of or the entire tolC gene was obtained as a clone showing particularly strong and distinctive cysteine sensitivity among the above candidates. TolC is an example of a protein called a porin, which localizes in the outer membrane and forms a channel for substance transportation via the outer membrane. Although the presence of many other porins was known for E. coli, TolC was the only porin selected by this screening, among the several candidates considered showing strong cysteine sensitivity.

[4] = system: tolC gene-deficient strain JW5503/pCA24; assay: Growth test of serially diluted cell suspensions spotted on L agar medium containing cysteine; assay type: cell-based, Escherichia coli; conditions: L agar with 10, 15, 20 mM cysteine, 37° C. overnight; FIG. 1
Description: Since a strain which is deficient in a part of or the entire tolC gene was obtained by the screening of the Keio Collection, growth of the gene-deficient strain was observed on the agar medium containing cysteine of different concentrations in order to analyze the sensitivity of that strain to cysteine in more detail. The strain which is deficient in a part of or the entire tolC gene used here was the JW5503 strain (Keio collection), and the parent strain thereof was the BW25113 strain (Andreas Haldimann, A. and Wanner, B. L., J. Bacteriol., 2001 November; 183 (21):6384-6393). The plasmid carrying the tolC gene for a complementation experiment was pTolC (ASKA clone, Kitagawa, M, et al., 2005; DNA Res., 12:291-299), and the vector used as the base thereof was pCA24 (vector for ASKA clone, Kitagawa, M, et al., 2005, DNA Res., 12:291-299).
The bacteria containing each of the plasmids were each inoculated into 5 ml of L medium (10 g/L of Bacto trypton, 5 g/L of Bacto yeast extract, 5 g/L of NaCl), and cultured overnight at 37° C. […]

[5] = reagent 2 M on filter paper strip
[6] = reagent 1 M on filter paper strip

SMILES | Growth inhibition width [1, 5] | Growth inhibition width [2, 5] | growth inhibition concentration of cysteine for wild-type strains [3] | cysteine sensitivity of growth compared with the control strain BW25113/pCA24 [4] | Growth inhibition width [1, 6] | Growth inhibition width [2, 6]
CC(=O)OC[C@H](N)C(=O)O [O-Acetylserine] | <1 mm | 4 mm |  |  |  | 
CC(=O)N[C@@H](CO)C(=O)O [N-Acetylserine] | <2 mm | 10 mm |  |  |  | 
N[C@@H](CS)C(=O)O [L-Cysteine] | <1 mm | 5 mm | 20 mM | marked cysteine sensitivity |  | 
N[C@@H](CO)C(=O)O [L-Serine] |  |  |  |  | 0 mm | 0 mm
